Reference: US6437138B1, “3-pyridyloxymethyl heterocyclic ether compounds useful in controlling chemical synaptic transmission” (priority 1996, dated 2002)
Where a name gives a salt, the structure may show the parent alone. Read-outs that look alike come from different tables or passages of the source.

Experiments:
[1] = target: neuronal nicotinic cholinergic channels in IMR-32 cells (Homo sapiens, UniProt P30926+P32297); experiment: 86Rb+ efflux in IMR-32 cells (activation, or inhibition of efflux elicited by (S)-nicotine); type: cell-based; details: for EC50 / IMR-32 maximal response / Emax: 86Rb+ efflux; for EC50: activation; for IMR-32 maximal response / Emax: percent relative to the response elicited by 100 μM (S)-nicotine; for inhibition at 1 µM / Emax / inhibition at 10 µM: IMR-32; for Emax: read-out: IMR-32 maximal response; for inhibition at 10 µM: single dose 10 μM
Description: For the purpose of directly evaluating the ability of test compounds to functionally activate or inhibit certain subtypes of neuronal nicotinic cholinergic channels, an assay to determine ^86Rb^+Efflux in IMR-32 cells was employed (Protocol B below).
B. Protocols for the Determination of Functional Effects of Cholinerzic Channel Receptor Ligands on Synaptic Transmission
Cells of the IMR-32 human neuroblastoma clonal cell line (ATCC, Rockville, Md.) were maintained in a log phase of growth according to established procedures (Lukas, 1993). Experimental cells were seeded at a density of 500,000 cells/ml into a 24-well tissue culture dish. Plated cells were allowed to proliferate for at least 48 hours before loading with 2 μCi/ml of ^86Rb^+ (35 Ci/mmol) overnight at 37° C. The ^86Rb^+ efflux assays were performed according to previously published protocols (Lukas, R. J., J. Pharmacol. Exp. Ther., 265: 294-302, 1993) except serum-free Dulbecco's Modified Eagle's Medium was used during the ^86Rb^+ loading, rinsing, and agonist-induced efflux steps.
EC50 data and maximal responses (reported as percent relative to the response elicited by 100 μM (S)-nicotine) are shown for selected compounds of the invention. The inhibition data (given for a larger number of compounds) reflect inhibition of the efflux elicited by 100 μM (S)-nicotine for either a single dose (% inhibition at 1 μM or at 10 μM) or over a range of doses (IC50 of inhibition). […] This finding is in agreement with the results of others who have linked dopamine release, which is dependent upon the ion flux in synaptic transmission, to binding at nicotinic receptors (cf., for example, Lippiello and Caldwell, U.S. Pat. No. 5,242,935, issued Sep. 7, 1993; Caldwell and Lippiello, U.S. Pat. No. 5,248,690, issued Sep. 28, 1993; and Wonnacott et al., Prog. Brain Res., 79: 157-163 (1989)).

[2] = target: neuronal nicotinic cholinergic channel receptors (Rattus norvegicus, UniProt P09483+P12390); details: read-out: Binding Ki
Sequence of neuronal nicotinic cholinergic channel receptors (P09483 31-630): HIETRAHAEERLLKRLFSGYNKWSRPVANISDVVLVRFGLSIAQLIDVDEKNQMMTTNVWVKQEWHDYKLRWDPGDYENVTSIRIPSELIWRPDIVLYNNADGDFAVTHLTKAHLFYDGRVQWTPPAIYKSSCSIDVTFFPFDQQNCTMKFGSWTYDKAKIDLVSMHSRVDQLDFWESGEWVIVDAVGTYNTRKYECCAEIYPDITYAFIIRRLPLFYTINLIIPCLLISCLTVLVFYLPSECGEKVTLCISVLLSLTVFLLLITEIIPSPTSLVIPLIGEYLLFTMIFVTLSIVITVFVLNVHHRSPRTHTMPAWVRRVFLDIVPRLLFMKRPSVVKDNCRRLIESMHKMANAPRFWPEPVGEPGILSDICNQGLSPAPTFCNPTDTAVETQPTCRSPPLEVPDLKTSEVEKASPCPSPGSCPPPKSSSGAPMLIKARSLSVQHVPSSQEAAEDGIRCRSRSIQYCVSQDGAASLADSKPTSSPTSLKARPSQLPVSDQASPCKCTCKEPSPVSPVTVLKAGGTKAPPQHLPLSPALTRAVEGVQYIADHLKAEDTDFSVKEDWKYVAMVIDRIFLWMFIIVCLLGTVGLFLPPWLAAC
Sequence of neuronal nicotinic cholinergic channel receptors (P12390 25-500): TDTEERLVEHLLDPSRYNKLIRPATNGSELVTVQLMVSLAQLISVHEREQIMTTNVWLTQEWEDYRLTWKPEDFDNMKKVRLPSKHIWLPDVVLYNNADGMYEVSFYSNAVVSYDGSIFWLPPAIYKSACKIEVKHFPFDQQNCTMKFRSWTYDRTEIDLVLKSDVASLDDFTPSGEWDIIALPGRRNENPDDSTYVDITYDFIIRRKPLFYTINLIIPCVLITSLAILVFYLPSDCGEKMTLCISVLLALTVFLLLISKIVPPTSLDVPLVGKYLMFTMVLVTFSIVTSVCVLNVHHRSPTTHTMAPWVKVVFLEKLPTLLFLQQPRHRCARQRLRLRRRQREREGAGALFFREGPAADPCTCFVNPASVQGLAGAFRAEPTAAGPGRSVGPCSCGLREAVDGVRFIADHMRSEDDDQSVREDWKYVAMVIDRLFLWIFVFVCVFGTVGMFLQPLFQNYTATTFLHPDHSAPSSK
Experimental: A. Protocol For Determination of Nicotinic Cholinergic Channel Receptor Binding Potencies of Ligands
Binding of [^3H]-cytisine ([^3H]-CYT) to nicotinic receptors was accomplished using crude synaptic membrane preparations from whole rat brain (Pabreza et al., Molecular Pharmacol, 1990, 39:9). Washed membranes were stored at −80° C. prior to use. Frozen aliquots were slowly thawed and resuspended in 20 volumes of buffer (containing: 120 mM NaCl, 5 mM KCl, 2 mM MgCl2, 2 mM CaCl2 and 50 mM Tris-Cl, pH 7.4 @ 4° C.). After centrifuging at 20,000×g for 15 minutes, the pellets were resuspended in 30 volumes of buffer. Homogenate (containing 125-150 μg protein) was added to triplicate tubes containing concentrations of test compound and [^3H]-CYT (1.25 nM) in a final volume of 500 μL. Samples were incubated for 60 minutes at 4° C., then rapidly filtered through Whatman GF/B filters presoaked in 0.5% polyethyleneimine using 3×4 mL of ice-cold buffer. The filters are counted in 4 mL of Ecolume® (ICN). Nonspecific binding was determined in the presence of […] (−)-nicotine and values were expressed as a percentage of total binding.

[3] = displacement of [3H]-cytisine (1.25 nM), whole rat brain membranes, Ki from IC50 by Cheng and Prusoff correction
[4] = inhibition of the efflux elicited by 100 μM (S)-nicotine, single dose 1 μM
[5] = inhibition of the efflux elicited by 100 μM (S)-nicotine

Row | Compound | Ki [2, 3] [nM] | inhibition at 1 µM [1, 4] [%] | also measured
1 | 5-(5,5-Dimethyl-1,3-hexadienyl)-6-chloro-3-(2-(R)-pyrrolidinylmethoxy)pyridine Citric Acid Salt [Example 55] | 4.6 | – | EC50 [1]: > 10000 µM; IMR-32 maximal response [1]: 24.5%
2 | 5-Hexenyl-3-(1-methyl-2-(S)-pyrrolidinylmethoxy)pyridine Dihydrochloride [Example 12] | 0.32 | – | % Inhibition @ 1 μM [1, 4]: 25%
3 | CN1CCC[C@H]1COc1cncc(-c2cccc([N+](=O)[O-])c2)c1 [Example 1, 5-(3-Nitrophenyl)-3-(1-methyl-2-(S)-pyrrolidinylmethoxy)pyridine Dihydrochloride] | 0.46 | 13 | –
4 | CN1CCC[C@H]1COc1cncc(-c2cccc3ccccc23)c1 [Example 2, 5-(1-Naphthalenyl)-3-(1-methyl-2-(S)-pyrrolidinylmethoxy)pyridine Dihydrochloride] | 4.2 | 47 | –
5 | COc1ccc(-c2cncc(OC[C@@H]3CCCN3C)c2)cc1 [Example 3, 5-(4-Methoxyphenyl)-3-(1-methyl-2-(S)-pyrrolidinylmethoxy)pyridine Dihydrochloride] | 0.32 | 39 | –
6 | CN1CCC[C@H]1COc1cncc(-c2ccco2)c1 [Example 5, 5-(2-Furanyl-3-(1-methyl-2-(S)-pyrrolidinylmethoxy)pyridine Dihydrochloride] | 0.19 | 27 | –
7 | CN1CCC[C@H]1COc1cncc(-c2cccs2)c1 [Example 6, 5-(2-Thienyyl)-3-(1-methyl-2-(S)-pyrrolidinylmethoxy)pyridine Dihydrochloride] | 0.31 | 28 | –
8 | CN1CCC[C@H]1COc1cncc(-c2cccnc2)c1.Cl.Cl [Example 7, 5-(3-Pyridyl)-3-(1-methyl-2-(S)-pyrrolidinylmethoxy)pyridine Dihydrochloride] | 0.27 | – | melting point: 155 to 160 °C
9 | CC(=O)c1cncc(OC[C@@H]2CCCN2C)c1 [Example 10, 5-Acetyl-3-(1-methyl-2-(S)-pyrrolidinylmethoxy)pyridine Dihydrochloride] | 1.2 | 32 | –
10 | CN1CCC[C@H]1COc1cncc(-c2ccc(F)cc2)c1 [Example 11, 5-(4-Fluorophenyl)-3-(1-methyl-2-(S)-pyrrolidinylmethoxy)pyridine Dihydrochloride] | 0.11 | 38 | –
11 | CN1CCC[C@H]1COc1cncc(/C=C/c2ccccc2)c1 [Example 18, 5-trans-(2-Phenylethenyl)-3-(1-methyl-2-(S)-pyrrolidinylmethoxy)pyridine Dihydrochloride] | 0.24 | 43 | –
12 | CN1CCC[C@H]1COc1cncc(C(=O)N2CCCC2)c1 [Example 19, 5-(1-Pyrrolidinylcarbonyl)-3-(1)-methyl-2-(S)-pyrrolidinylmethoxy)pyridine Dihydrochloride] | 20 | 14 | –
13 | CN1CCC[C@H]1COc1cncc(CCc2ccccc2)c1 [Example 21, 5-(2-Phenylethyl)-3-(1-methyl-2-(S)-pyrrolidinylmethoxy)pyridine Dihydrochloride] | 0.22 | 22 | –
14 | COC(=O)c1cncc(OC[C@@H]2CCCN2C)c1 [Example 27, 5-Methoxycarbonol-3-(1-methyl-2-(S)-pyrrolidinylmethoxy)pyridine Dihydrochloride] | 1.5 | 26 | –
15 | CN1CCC[C@H]1COc1cncc(CCc2ccncc2)c1 [Example 29, 5-(2-(4-Pyridinnyl)ethyl)-3-(1-methyl-2-(S)-pyrrolidinnylmethoxy)pyridine Trihydrochloride] | 0.064 | 32 | –
16 | CN1CCC[C@H]1COc1cncc(-c2ccc3ccccc3c2)c1 [Example 31, 5-(2-Naphthalenyl-3-(1-methyl-2-(S)-pyrrolidinylmethoxy)pyridine Dihydrochloride] | 0.33 | 37 | –
17 | Cl.Cl.Clc1ncc(OC[C@@H]2CCCN2)cc1-c1cccnc1 [Example 34, 5-(3-Pyridinyl)-6-chloro-3-(2-(S)-pyrrolidinylmethoxy)pyridine Dihydrochloride] | 0.021 | – | Emax [1]: 88%; melting point: 195 to 198 °C
18 | CN1CCC[C@H]1COc1cncc(-c2cnc3ccccc3c2)c1 [Example 35, 5-(3-Ouinolinyl)-3-(1-methyl-2-(S)-pyrrolidinylmethoxy)pyridine Trihydrochloride] | 0.39 | 34 | –
19 | CN1CCC[C@H]1COc1cncc(-c2cc(C(F)(F)F)cc(C(F)(F)F)c2)c1 [Example 37, 5-(3,5-bis(Trifluoromehyl)phenyl)-3-(1-methyl-2-(S)-pyrrolidinylmethoxy)pyridine Dihydrochloride] | 2.4 | 41 | –
20 | CN1CCC[C@H]1COc1cncc(-c2ccc(F)c(Cl)c2)c1 [Example 42, 5-(3-Chloro-4-fluorolphenyl)-3-(1-methyl-2-(S)-pyrrolidinylmethoxy)pyridine Dihydrochloride] | 0.055 | 38 | –
21 | CN1CCC[C@H]1COc1cncc(-c2ccccc2C=O)c1 [Example 44, 5-(2-Formylphenyl)-3-(1-methyl-2-(S)-pyrrolidinylmethoxy)pyridine Dihydrochloride] | 0.56 | 30 | inhibition at 10 µM [1, 5]: 97%
22 | Cc1ccccc1-c1cncc(OC[C@@H]2CCCN2C)c1 [Example 45, 5-(2-Methylphenyl)-3-(1-methyl-2-(S)-pyrrolidinylmethoxy)pyridine Dihydrochloride] | 1.1 | 41 | inhibition at 10 µM [1, 5]: 100%
23 | CN1CCC[C@H]1COc1cncc(-c2ccc(C(F)(F)F)cc2)c1 [Example 46, 5-(4-(Trifluoromethyl)phenyl)-3-(1)-methyl-2-(S)-pyrrolidinylmethoxy)pyridine Dihydrochloride] | 0.15 | 37 | –
24 | CCCCC#Cc1cncc(OC[C@@H]2CCN2)c1.Cl.Cl [Example 58, 5-Hexynyl-3-(2-(S)-azetidinylmethoxy)pyridine Dihydrochloride] | 0.056 | – | EC50 [1]: 0.8 µM; IMR-32 maximal response [1]: 47%
25 | CN1CCC[C@H]1COc1cncc(-c2ccccc2)c1.Cl.Cl [Example 90, 5-Phenyl-3-(1-methyl-2-(S)-pyrrolidinylmethoxy)pyridine Dihydrochloride] | 0.111 | – | melting point: 88 to 90 °C
26 | CN1CC[C@@H]1COc1cncc(-c2ccsc2)c1 [Example 91, 5-(3-Thienyl)-3-(1-methyl-2-(R)-azetdinylmethoxy)pyridine Dihydrochloride] | – | – | Ki [2]: 1.84 nM
27 | CN1CCC[C@@H]1COc1cnc(Cl)c(-c2cncnc2)c1 [Example 180, 6-Chloro-3-(1-methyl-2-(R)-pyrrolidinylmethoxy)-5-pyrimidinylpyridine Hydrochloride] | 4.8 | – | –
28 | C=Cc1cc(OC[C@@H]2CCCN2)cnc1Cl.Cl [Example 191, 6-Chloro-5-ethenyl-3-(2-(S)-pyrrolidinylmethoxy)pyridine Hydrochloride] | – | – | Emax [1]: 106%; melting point: 195 to 197 °C
29 | C=Cc1cc(OC[C@@H]2CCCN2)cnc1C=C.Cl [Example 193, 5,6-Diethenyl-3-(2-(S)-pyrrolidinylmethoxy)pyridine Hydrochloride] | – | – | Emax [1]: 9.5%; melting point: 186 to 188 °C
